BindingDB's records for doi:10.1021/acsmedchemlett.7b00245 (University of Iowa, 2017)

Assay: Activation of BTN3A1 in human PBMC-derived Vgamma9Vdelta2 T cells assessed as induction of interleukin 2 stimulated cell proliferation by measuring increase in CD3 positive cells incubated for 3 days followed by 11 days incubation post compound wash out with subsequent stimulation with IL-2 every 3 days measured after 14 days by flow cytometr

| SMILES | EC50 [nM] |
| --- | --- |
| C/C(=C\CCP(=O)(COC(=O)C(C)(C)C)OCOC(=O)C(C)(C)C)CO (configuration not stated) | 5.4 |
| C/C(=C\CCP(=O)(O)Oc1ccccc1)CO | 870 |
| C/C(=C\CCP(=O)(COC(=O)C(C)(C)C)Oc1cccc2ccccc12)CO (configuration not stated) | 0.79 |
| COP(=O)(CC/C=C(\C)CO)Oc1ccccc1 (configuration not stated) | 33000 |
| C/C(=C\CCP(=O)(O)Oc1cccc2ccccc12)CO | 610 |
| COP(=O)(CC/C=C(\C)CO)Oc1cccc2ccccc12 (configuration not stated) | 5500 |
| C/C(=C\CCP(=O)(COC(=O)C(C)(C)C)Oc1ccccc1)CO (configuration not stated) | 14 |
